Measured values taken from ChEMBL document CHEMBL5104209 (RSC Med Chem, 2022).
Activity calls are given as the source filed them. No cut-off for these calls is given here.

Legend:
[1] = Binding affinity to human His-tagged PAK4 (300 to 591 residues) L301A mutant expressed in Escherichia coli BL21 (DE3)pLysS by surface plasmon resonance assay
Homo sapiens = species: Homo sapiens; assay: Binding affinity to human His-tagged PAK4 (300 to 591 residues) L301A mutant expressed in Escherichia coli BL21 (DE3)pLysS in presence of staurosporine by ligand observed NMR competitive assay

| Activity (Homo sapiens) | Compound | Kd [1] [µM] |
| --- | --- | --- |
| – | Nc1cccc2ncccc12 | 510 |
| Active | CNC(=O)c1cnn2ccc(C#N)cc12 | – |
| – | NS(=O)(=O)c1cccc2cnccc12 | 300 |
| – | c1c(Nc2nc(N3CCCCC3)nc3[nH]ncc23)n[nH]c1C1CC1 | 0.05 |
